Source: ChEMBL document CHEMBL1125820, “Structure-activity relationship of mutagenic aromatic and heteroaromatic nitro compounds. Correlation with molecular orbital energies and hydrophobicity” (J Med Chem, 1991)

What was measured:
[1] = Partition coefficient (logP); conditions: octanol/water
Salmonella typhimurium = assay: Mutagenic activity in an Ames test on Salmonella Typhimurium TA98; Activity is log of revertants/nmol; type: functional, Salmonella enterica subsp. enterica serovar Typhimurium; set-up: scale not given here

Compound | logP [1] | Activity (Salmonella typhimurium)
O=[N+]([O-])c1cc2cccnc2c2ncccc12 | 1.84 | 0.59
O=C(/C=C/c1ccc([N+](=O)[O-])cc1)c1ccc([N+](=O)[O-])cc1 | 2.73 | -1.42
O=[N+]([O-])c1ccc(F)cc1 | 1.8 | -0.23
O=[N+]([O-])c1c2ccccc2c2ccc3cccc4ccc1c2c43 | 5.87 | 1.64
Nc1ccc(-c2cccc([N+](=O)[O-])c2)cc1 | 2.68 | -1.52
O=C/C=C/c1ccc([N+](=O)[O-])o1 | 0.96 | 1.97
Nc1ccccc1-c1cccc([N+](=O)[O-])c1 | 2.68 | -1.52
C=Cc1ccc([N+](=O)[O-])cc1 | 2.61 | -1.3
O=[N+]([O-])c1cccc2ncccc12 | 1.86 | -0.96
O=[N+]([O-])c1ccc2ccc3c([N+](=O)[O-])cc([N+](=O)[O-])c4ccc1c2c34 | 4.18 | 4.99
O=[N+]([O-])c1ccc2cccc3c2c1CC3 | 3.81 | 1
O=[N+]([O-])c1ccc2[nH]ccc2c1 | 2.13 | 0.57
O=[N+]([O-])c1ccc2c(c1)Cc1cccc([N+](=O)[O-])c1-2 | 3.71 | 3.2
O=[N+]([O-])c1c(Cl)c(Cl)c2c(c1Cl)Oc1cc(Cl)c(Cl)cc1O2 | 7.84 | -0.33
O=[N+]([O-])c1cc(F)ccc1F | 1.89 | -0.79
O=[N+]([O-])c1ccc2c(c1)Cc1cc(Cl)ccc1-2 | 4.68 | 3.11
O=C(/C=C/c1ccc([N+](=O)[O-])o1)N/N=C/c1ccc([N+](=O)[O-])o1 | 2.79 | 2.45
O=[N+]([O-])c1ccc2c3c([N+](=O)[O-])ccc4ccc5ccc6ccc1c2c6c5c43 | 6.07 | 4.33
O=[N+]([O-])c1ccc2c(c1)Cc1cc(O)ccc1-2 | 3.43 | 1.68
Cc1c([N+](=O)[O-])ccc2ccccc12 | 3.43 | -0.7
Cc1ccc2c(c1)Cc1cc([N+](=O)[O-])ccc1-2 | 4.62 | 2.36
O=[N+]([O-])c1ccc2c3c(ccc([N+](=O)[O-])c13)-c1ccccc1-2 | 4.44 | 3.62
O=[N+]([O-])c1cc2ccccc2c2ccccc12 | 4.23 | 2.25
O=[N+]([O-])c1cc2c3c(cccc3c1[N+](=O)[O-])-c1ccccc1-2 | 4.44 | 2.62
O=[N+]([O-])C1=CC2Nc3ccc([N+](=O)[O-])cc3NC2C=C1 (stereo unspecified) | 2.29 | 4.34

Compound | logP [1] | Activity (Salmonella typhimurium)
O=[N+]([O-])c1ccc2c(c1)Oc1ccccc1O2 | 4.73 | 1.79
CN1Cc2ccc([N+](=O)[O-])cc2N1 | 1.77 | -0.41
O=[N+]([O-])c1ccc2c(ccc3c4ccccc4ccc23)c1 | 5.41 | -0.22
O=[N+]([O-])c1cc2c3c(cccc3c1)-c1ccccc1-2 | 4.69 | 3.01
O=[N+]([O-])C1=Cc2c3c1cccc3cc1ccc3ccccc3c21 | 5.07 | 0.26
CC(=O)Nc1ccc2c(c1)Cc1cc([N+](=O)[O-])ccc1-2 | 3.08 | 2.85
O=[N+]([O-])c1cc2c([N+](=O)[O-])ccc3c2c(c1[N+](=O)[O-])-c1ccccc1-3 | 4.18 | 3.56
Cn1ncc2cc([N+](=O)[O-])ccc21 | 1.77 | -0.82
O=[N+]([O-])c1ccc(F)c([N+](=O)[O-])c1 | 1.49 | 1.2
O=[N+]([O-])c1ccc(F)c(Cl)c1 | 2.74 | -1.21
Nc1ccc2c(c1)Cc1cc([N+](=O)[O-])ccc1-2 | 3.06 | 1.56
CCOc1ccccc1[N+](=O)[O-] | 2.35 | -2.22
O=[N+]([O-])c1c2ccccc2cc2c1ccc1ccccc12 | 5.41 | -0.52
O=[N+]([O-])c1ccc2c(c1)NCC2 | 1.92 | -0.48
O=[N+]([O-])c1cccc(Cl)c1Cl | 3.05 | -1.51
O=[N+]([O-])c1ccc2ccc3c([N+](=O)[O-])ccc4ccc1c2c43 | 4.44 | 5.06
O=[N+]([O-])C1=Cc2cccc3c2c1cc1cc2ccccc2cc13 | 5.07 | 0.92
O=[N+]([O-])c1ccc(F)cc1[N+](=O)[O-] | 1.89 | -1.84
O=[N+]([O-])c1ccc(-c2cccc([N+](=O)[O-])c2)cc1 | 3.52 | 0.23
Nc1cccc(-c2ccccc2[N+](=O)[O-])c1 | 2.68 | -2
O=[N+]([O-])c1ccc2c3c(cccc13)-c1ccccc1-2 | 4.69 | 3.67
O=[N+]([O-])C1=CC=CC2Nc3cccc([N+](=O)[O-])c3NC12 (stereo unspecified) | 2.29 | 1.26
O=[N+]([O-])c1ccc2c(c1)CC=C2 | 2.74 | 0.96
O=Cc1ccc([N+](=O)[O-])o1 | 1.01 | 0.64
Nc1ccccc1-c1ccc([N+](=O)[O-])cc1 | 2.68 | -1.7

Compound | logP [1] | Activity (Salmonella typhimurium)
O=[N+]([O-])c1ccc2c(c1)Cc1cc(I)ccc1-2 | 5.09 | 2.97
O=[N+]([O-])c1cc2c3c(c([N+](=O)[O-])c([N+](=O)[O-])cc3c1)-c1ccccc1-2 | 4.18 | 3.16
O=[N+]([O-])c1ccc2c(c1)-c1ccc([N+](=O)[O-])c3cccc-2c13 | 4.44 | 5.02
O=[N+]([O-])c1cccc2cnccc12 | 1.65 | -1.55
O=[N+]([O-])C1=Cc2cc3cc4ccccc4cc3c3cccc1c23 | 5.07 | 0.67
O=[N+]([O-])c1cccc2c1-c1cccc3c([N+](=O)[O-])ccc-2c13 | 4.44 | 5.09
O=[N+]([O-])c1cc([N+](=O)[O-])c2c3c(c4cccc5ccc1c2c54)CCCC3 | 6.01 | 2.41
O=C(Nc1ccc2c(c1)Cc1cc([N+](=O)[O-])ccc1-2)C(F)(F)F | 4.23 | 2.81
O=[N+]([O-])c1ccc2c3ccc([N+](=O)[O-])c4ccc5ccc6ccc1c2c6c5c43 | 6.07 | 3.6
Cn1c([N+](=O)[O-])nc2ccccc21 | 1.58 | 2.54
O=[N+]([O-])c1cccc2[nH]c3ccccc3c12 | 3.51 | -2
O=[N+]([O-])c1ccc(Cl)c(Cl)c1Cl | 3.61 | -2.94
O=[N+]([O-])c1ccc2ccc3c4c(cc5ccc1c2c53)CCCC4 | 6.57 | 0.3
O=C1c2ccccc2-c2cc([N+](=O)[O-])ccc21 | 3.06 | 2.13
O=[N+]([O-])c1cc2ccc3cccc4ccc(c1)c2c34 | 4.69 | 3.35
O=[N+]([O-])C1=Cc2ccc3ccc4cccc5cc1c2c3c45 | 4.35 | 0.77
O=[N+]([O-])c1ccc2c(c1)Cc1cc(Br)ccc1-2 | 4.83 | 3.06
O=[N+]([O-])C1Cc2cccc3cccc1c23 (stereo unspecified) | 2.72 | 1.77
O=[N+]([O-])c1cc2c3c(ccc4cccc(c43)CC2)c1 | 4.99 | 3.27
O=[N+]([O-])c1ccc2c(c1)-c1cccc3cccc-2c13 | 4.69 | 4.05
COc1ccc2c(c1)Cc1cc([N+](=O)[O-])ccc1-2 | 3.95 | 2.79
O=[N+]([O-])c1cc2c3c(cc([N+](=O)[O-])c([N+](=O)[O-])c3c1)-c1ccccc1-2 | 4.18 | 3.44
O=[N+]([O-])c1ccc2cn[nH]c2c1 | 2.06 | 0.66
